Reference: article PMC6934949, “Calixmexitil: Calixarene-based Cluster of Mexiletine with Amplified Anti-myotonic Activity as A Novel Use-dependent Sodium Channel Blocker” (Iranian Journal of Pharmaceutical Research : IJPR, 2019)

System: T1, sodium channel (voltage-gated, skeletal muscle)
T1 construct: gene scn4a; native channel in single semitendinosus muscle fibers
Experiment: three vaseline gap voltage clamp of Na+ current, phasic ([…] Hz use-dependent) block
Type: cell-based
Details: read-out: Phasic block IC 50

Row | IC50 [µM] | SMILES
1 | 31 | Cc1cccc(C)c1OCC(C)N (racemic) [Mexiletine, 1-(2,6-dimethylphenoxy)-2-propanamine]
2 | 3 | CC(N)COc1c2cccc1Cc1cccc(c1OCC(C)N)Cc1cccc(c1OCC(C)N)Cc1cccc(c1OCC(C)N)C2 (centres unmarked) [compound 4, Calixmexitil]
